Reference: PubChem BioAssay (NCI)
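Briefly, cells in 96-well plates were exposed to five compound concentrations for 48 h, and endpoints were estimated by linear interpolation. GI50: concentration for 50% inhibition of growth. TGI denotes the concentration required for complete inhibition of growth.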

Assays:
Assay in all cases: NCI-60 cell line screen, 48 h
HL-60(TB) leukemia = system: HL-60(TB) leukemia
DU-145 prostate = system: DU-145 prostate
SF-295 CNS = system: SF-295 CNS
HOP-92 NSCLC = system: HOP-92 NSCLC
CAKI-1 renal = system: CAKI-1 renal
LOX IMVI melanoma = system: LOX IMVI melanoma
MDA-MB-231 breast = system: MDA-MB-231 breast
SR leukemia = system: SR leukemia
HT29 colon = system: HT29 colon
T-47D breast = system: T-47D breast

| SMILES | TGI (HL-60(TB) leukemia) [µM] | TGI (DU-145 prostate) [µM] | TGI (SF-295 CNS) [µM] | TGI (HOP-92 NSCLC) [µM] | TGI (CAKI-1 renal) [µM] | TGI (LOX IMVI melanoma) [µM] | TGI (MDA-MB-231 breast) [µM] | TGI (SR leukemia) [µM] | TGI (HT29 colon) [µM] | TGI (T-47D breast) [µM] | GI50 (HL-60(TB) leukemia) [µM] | GI50 (SF-295 CNS) [µM] | GI50 (HOP-92 NSCLC) [µM] | GI50 (CAKI-1 renal) [µM] | GI50 (LOX IMVI melanoma) [µM] | GI50 (SR leukemia) [µM] | GI50 (HT29 colon) [µM] | GI50 (DU-145 prostate) [µM] | GI50 (T-47D breast) [µM] | GI50 (MDA-MB-231 breast) [µM] |
| --- | --- | --- | --- | --- | --- | --- | --- | --- | --- | --- | --- | --- | --- | --- | --- | --- | --- | --- | --- | --- |
| CN(C)CC1CC/C(=C\c2ccc3c(c2)OCO3)C1=O (centres undefined) | 11 | 19.7 | 56.8 | 33.1 | 23.1 | 3.72 | 4.25 | 11 | 59 |  |  |  |  |  |  |  |  |  |  |  |
| CN1Cc2ccccc2/C=C\c2ccccc21 |  | > 100 | > 100 | 98.7 | > 100 | > 100 | > 100 |  | > 100 | > 100 |  |  |  |  |  |  |  |  |  |  |
| CSc1cnc2ccccc2c1Sc1c[nH]c2ccccc2c1=O | 18 |  | > 46.7 | 29.7 |  | 67.2 |  | > 52 | 15.1 |  |  |  |  |  |  |  |  |  |  |  |
| CCC[CH2][Sn]([CH2]CCC)([S]C#N)[S]C#N | 1.45 |  | 2.94 | 3.5 | 1.87 | 2.47 |  | 2.54 | 8.51 |  | 0.389 | 1.53 | 1.79 | 0.32 | 0.85 | 0.36 | 2.77 |  |  |  |
| CCC(C)CC(C)CC(C)/C=C(\C)C1=C(C)CC(C)(O)O1 (centres undefined) | 79 |  |  | 79.7 | > 100 | > 100 |  |  | > 100 |  |  |  |  |  |  |  |  |  |  |  |
| N#Cc1ccccc1NC(=O)C(=O)C1NC(=S)NC1=O (centres undefined) | > 100 |  | > 100 | > 100 | > 100 | > 100 |  | > 100 | > 100 |  |  |  |  |  |  |  |  |  |  |  |
| COc1ccc2oc3c(OC)c(OC)c(OC)cc3c(=O)c2c1 |  |  |  |  | > 100 | > 100 |  |  | > 100 |  |  |  |  |  |  |  |  |  |  |  |
| c1ccc(OCCC[P+](c2ccccc2)(c2ccccc2)c2ccccc2)cc1 | 0.832 | 19.6 | 7.77 |  | 27.9 | 6.75 | 11.2 | 11.4 | 9.21 | 29.5 | 0.285 | 1.97 |  | 10.1 | 2.18 | 0.646 | 0.984 | 3.19 | 0.383 | 2.33 |
| Cc1ccc(NC(=O)C(=O)CC(=O)c2c(C)n([O-])c3ccccc3[n+]2=O)cc1C | > 100 |  | > 100 | > 100 | > 100 | > 100 |  | > 100 | > 100 |  |  |  |  |  |  |  |  |  |  |  |
| CCCCCCCCCCCCC(O)c1ccco1 (centres undefined) |  | 35.1 | 39.3 | 32.1 | 33.4 | 32.2 | 32.7 |  | > 100 | > 100 |  | 19.7 | 15.5 | 18 | 17.9 |  | 35.8 | 19.3 | 35.5 | 17.4 |
| Cn1cc(C2=C(c3c[nH]c4ccccc34)C(=O)NC2=O)c2ccccc21 | 6.35 | > 25 |  |  | > 25 | > 25 | > 25 |  | > 25 | > 25 | 0.871 | 0.201 |  | 0.523 | 1.3 | 0.233 | 0.968 | 2.37 | 0.846 | 9.06 |
| COc1ccc(/C=C/c2c(C(=O)/C=C/c3ccc(C(F)(F)F)cc3)c(C)nc3ccccc23)cc1 | 5.67 | 3.71 | 3.28 | 3.59 | 2.56 | 2.74 |  | > 100 | 6.6 | 3.78 | 1.92 | 1.71 | 1.62 | 1.13 | 1.37 | 0.599 | 1.13 | 1.76 | 1.31 |  |
| C1CCCCc2nc3c(nc2CCC1)c1nc2c(nc1c1nc4c(nc31)CCCCCCCC4)CCCCCCCC2 | > 100 |  | > 100 | > 100 |  | > 100 |  | > 100 | > 100 |  |  |  |  |  |  |  |  |  |  |  |
| COc1ccc(C2=Nc3ccccc3SC(C)C2)cc1OC (centres undefined) | 59.6 |  | 38 | > 100 | 50.4 | 32.9 |  | 57.4 | 37.2 |  |  |  |  |  |  |  |  |  |  |  |
| COc1cc2c(c(OC)c1OC)-c1ccc(SC)c(=O)cc1[C@@H](NCc1ccc([N+](=O)[O-])cc1)CC2 | 1.49 |  | > 100 | > 100 | > 100 | > 100 |  |  | 0.011 |  |  |  |  |  |  |  |  |  |  |  |
| CCCCCCCC1(c2ccc(N)cc2)CCC(=O)NC1=O (centres undefined) | 36.6 |  | 88.1 | 51.9 | > 100 | > 100 |  |  |  |  |  |  |  |  |  |  |  |  |  |  |
| COc1ccc(C)cc(=O)c1O | 61.5 |  | > 100 | > 100 | > 100 | 79.7 |  | 38.6 | > 100 |  |  |  |  |  |  |  |  |  |  |  |
| CCN(CC)CC1CCCCN1CC(=O)N1CC(C)C(=O)Nc2ccccc21 (centres undefined) | > 100 |  | > 100 | > 100 | > 100 | > 100 |  | > 100 | > 100 |  |  |  |  |  |  |  |  |  |  |  |
| COc1cc(/C=C/c2ccc(O)c(OC)c2)cc(OC)c1 | 78.1 | 61.5 | 54.7 | 49.7 | > 100 |  |  | > 100 | 85.8 | > 100 |  |  |  |  |  |  |  |  |  |  |
| CC1=C(SC#N)S(=O)(=O)N(c2ccccc2)C(C)=C1SC#N | > 100 |  | 67.1 | 88.7 | > 100 | > 100 |  | 65.5 | > 100 |  |  |  |  |  |  |  |  |  |  |  |
| COc1ccc(-c2ccc(/C=N/n3c(COc4ccccc4Cl)nn(CN4CCOCC4)c3=S)o2)c([N+](=O)[O-])c1 | 39 | > 100 | > 100 | 52.6 | 56.3 |  |  |  | > 100 | > 100 | 17 | 38.1 | 21.6 | 21.3 |  |  | 49.9 | 34.1 | 53.9 |  |
